Key:
[1] = tested on: sweet corn cultivars 'Merit', 'Temptation', 'Incredible'; assay: Visual leaf tissue bleaching of sweet corn (Example 3, Table 9); format: in vivo; settings: mesotrione 105, atrazine 560 g ai/ha
Protocol: (§1) Studies were conducted in a field in Knoxville, Tenn. to ascertain the growth, stress tolerance and nutritional quality differences following postemergence applications of herbicides mesotrione and atrazine, alone and in mixtures together, on the young sweet corn cultivars: ‘Merit’ (yellow-kernel sensitive genotype), ‘Temptation’ (bicolor tolerant genotype), and ‘Incredible’ (yellow-kernel moderately sensitive genotype).
(§2) Herbicide treatments were applied as follows: 1) untreated control; 2) mesotrione (meso) at 105 g ai/ha EPOST; 3) mesotrione at 105+atrazine at 560 g ai/ha EPOST; 4) atrazine at 560 g ai/ha EPOST; 5) mesotrione at 105 g ai/ha LPOST; 6) mesotrione at 105+atrazine at 560 g ai/ha LPOST; and 7) atrazine at 560 g ai/ha LPOST. Visual ratings of plant growth were taken during season, and kernels for carotenoids were measured at harvest.

[2] = tested on: sweet corn cultivars 'Merit', 'Temptation', 'Incredible'; assay: Kernel carotenoids of sweet corn after mesotrione and atrazine (Example 3); format: in vivo; set-up: Kernel carotenoids: Lutein / Kernel carotenoids: Zeaxanthin: unit not given here; settings: mesotrione 105, atrazine 560 g ai/ha
Protocol: as §1, §2

[3] = 'Incredible' moderately sensitive genotype, EPOST
[4] = 'Incredible' moderately sensitive genotype, LPOST
[5] = 'Merit' sensitive genotype, EPOST
[6] = 'Merit' sensitive genotype, LPOST

CS(=O)(=O)c1ccc(C(=O)C2C(=O)CCCC2=O)c([N+](=O)[O-])c1 [Mesotrione*CALLISTO, mesotrione]
Leaf Tissue Visual Bleaching (%) ([1]; ‘Incredible’, 7 DAT, EPOST): 16%
Leaf Tissue Visual Bleaching (%) ([1]; ‘Incredible’, 7 DAT, LPOST): 11%
Leaf Tissue Visual Bleaching (%) ([1]; ‘Incredible’, 14 DAT, EPOST): 9%
Leaf Tissue Visual Bleaching (%) ([1]; ‘Incredible’, 14 DAT, LPOST): 9%
Leaf Tissue Visual Bleaching (%) ([1]; ‘Incredible’, 21 DAT, EPOST): 8%
Leaf Tissue Visual Bleaching (%) ([1]; ‘Incredible’, 21 DAT, LPOST): 1%
Leaf Tissue Visual Bleaching (%) ([1]; ‘Merit’, 7 DAT, EPOST): 61%
Leaf Tissue Visual Bleaching (%) ([1]; ‘Merit’, 7 DAT, LPOST): 34%
Leaf Tissue Visual Bleaching (%) ([1]; ‘Merit’, 14 DAT, EPOST): 53%
Leaf Tissue Visual Bleaching (%) ([1]; ‘Merit’, 14 DAT, LPOST): 29%
Leaf Tissue Visual Bleaching (%) ([1]; ‘Merit’, 21 DAT, EPOST): 44%
Leaf Tissue Visual Bleaching (%) ([1]; ‘Merit’, 21 DAT, LPOST): 9%
Lutein % change from untreated control [2, 3]: −6.4%
Zeaxanthin % change from untreated control [2, 3]: −7.4%
Kernel carotenoids: Lutein ([2]; 'Incredible' moderately sensitive genotype, EPOST, untreated 0.328): 0.307
Kernel carotenoids: Zeaxanthin ([2]; 'Incredible' moderately sensitive genotype, EPOST, untreated 0.448): 0.415
Lutein % change from untreated control [2, 4]: +4.6%
Zeaxanthin % change from untreated control [2, 4]: +1.3%
Kernel carotenoids: Lutein ([2]; 'Incredible' moderately sensitive genotype, LPOST, untreated 0.328): 0.343
Kernel carotenoids: Zeaxanthin ([2]; 'Incredible' moderately sensitive genotype, LPOST, untreated 0.448): 0.454
Lutein % change from untreated control [2, 5]: +7.8%
Zeaxanthin % change from untreated control [2, 5]: +12.0%
Kernel carotenoids: Zeaxanthin ([2]; 'Merit' sensitive genotype, EPOST, untreated 0.509): 0.570
Kernel carotenoids: Lutein [2, 6]: 0.577
Lutein % change from untreated control [2, 6]: +8.7%
Zeaxanthin % change from untreated control [2, 6]: −3.7%
Kernel carotenoids: Zeaxanthin ([2]; 'Merit' sensitive genotype, LPOST, untreated 0.509): 0.409
